This passage reports Km and Kd results from article PMC2837848 (Biochemistry, 2010).

Read-outs that look alike come from different tables or passages of the source.

Assay [1] deals with QAPRTase (Salmonella typhimurium quinolinic acid phosphoribosyltransferase) (Salmonella enterica, UniProt P30012). Put plainly: steady-state kinetics. The class given is biochemical. Particulars: read-out: WT.
In assay [2] the target is QAPRTase (Salmonella typhimurium quinolinic acid phosphoribosyltransferase) (Salmonella enterica, UniProt P30012, H189A). Put plainly: biochemical.
The target of assay [3] is QAPRTase (Salmonella typhimurium quinolinic acid phosphoribosyltransferase) (Salmonella enterica, UniProt P30012, R153A). Put plainly: biochemical.

For the molecule `O=C(O)c1cccnc1C(=O)O` [QA, quinolinic acid], the Km in assay [1] (co-substrate PRPP) was 27 ± 6 µM.

For orientation: Kd means the concentration at which binding is half-saturated. `O=P(O)(O)OC[C@H]1O[C@H](OP(=O)(O)OP(=O)(O)O)[C@H](O)[C@@H]1O` [PRPP, 5-phosphoribosyl 1-pyrophosphate]: in assay [1] (co-substrate QA), the Km was found to be 57 ± 7 µM. The dissociation constant (Kd) in assay [2] was 480 ± 75 µM; in assay [3], roughly 1000 µM.
